Measured values: US10813891B2, “Method of inhibiting chronification of pain” (priority 2011, dated 2020)
Where two headings read alike, the source gives them in different places.

Key:
CCI-SN rats = assay type: in vivo, rat
Procedure: (§1) Male Sprague-Dawley rats (Charles River Laboratories, L'Arbresle, France), weighing 150-200 g on arrival, were used. Animals were maintained under controlled environmental conditions (22±1° C., 60% relative humidity, 12 h/12 h light/dark cycle, food and water ad libitum) starting from reception in the laboratory, for at least 1 week before any intervention or treatment and thereafter, until euthanasia.
Rats were anaesthetized as above and the common sciatic nerve was exposed. Using a dissection microscope (2× magnification), four chromic catgut (5-0) ligations were tied loosely with about 1 mm spacing, proximally to the sciatic trifurcation (Bennett and Xie, 1988). Finally, the skin and muscle were sewed using silk sutures (4-0). In sham-operated animals, the same surgery was performed, but the nerve was not ligated.
(§2) Tapentadol (1, 3 and 10 mg/kg i.p.), reboxetine (10 mg/kg i.p.), morphine (1 and 3 mg/kg s.c.) or their vehicle (0.9% NaCl) were injected acutely 14 days after surgery, when allodynia/hyperalgesia reached a plateau in both CCI-SN and CCI-ION rats. Behavioral tests were performed at various times for up to 4 h after injection. In drug association procedure, reboxetine or saline was administered 15 min before morphine or saline.
(§3) Subchronic treatment consisted of twice daily injections of tapentadol (10 mg/kg, i.p. at 10:00 am and 6:00 pm) or saline for 4 days starting on the 15th day after nerve ligation in both CCI-ION and CCI-SN rats. Animals were further injected with tapentadol (10 mg/kg i.p.) or saline at 10:00 am the following day (19th day post-surgery), and assessment of allodynia with von Frey filament tests (see below) was made at various times up to 4 hours after this injection. All rats were killed by decapitation 4 hours after the last injection for real-time qRT-PCR determinations of specific mRNAs in ganglia and central tissues (see below).
Before testing, each rat was habituated for 2 h as above, and mechanical sensitivity was then determined with a graded series of […] von Frey filaments, that produced a bending force of 6, 8, 10, 12, 15, 26, and 60 g, respectively. The stimuli were applied within the SN territory (lateral part of the hind paw sole). Each filament was tested three times on the nerve-injured side in increasing order starting with the filament producing the lowest force. As for the CCI-ION rats, the von Frey filaments were applied at least 3 seconds after the rat had returned to its initial resting state. The minimal force filament for which animals presented either a brisk paw withdrawal and/or an escape attempt in response to at least 2 out of the 3 stimulations allowed determination of the mechanical response threshold. The 60.00 g filament was chosen as the cutoff threshold to inhibit any tissue injury.
A—Two weeks after unilateral chronic constriction injury to the sciatic nerve, pressure threshold values (as g) to trigger nocifensive responses to von Frey filaments application onto the plantar surface of ipsilateral hindpaw were determined at various times after acute injection of tapentadol (1, 3 or 10 mg/kg, i.p.) or saline. B—On day 15 (D on abscissa) after nerve ligation, rats were treated subchronically with tapentadol (10 mg/kg, i.p., twice daily, at 10:00 AM and 6:00 PM) or saline for four days. On the following day (day 19 after surgery), both tapentadol- and saline-pretreated CCI-SN rats were injected with tapentadol (10 mg/kg, i.p.; 0 on abscissa) and then subjected to von Frey filaments' test applied to ipsilateral hindpaw for determination of pressure threshold values (as g) at various times thereafter.

CCI-ION rats = assay type: in vivo, rat
Procedure: as §1
Rats were anaesthetized with sodium pentobarbital (50 mg/kg i.p.). Unilateral CCI-ION was performed under direct visual control using a Zeiss microscope (10-25×). Briefly, the head was fixed in a Horsley-Clarke stereotaxic frame and a midline scalp incision was made, exposing skull and nasal bone. The edge of the orbit, formed by the maxillary, frontal, lacrimal, and zygomatic bones, was dissected free. The orbital contents were then gently deflected to give access to the infraorbital nerve which was dissected free at its most rostral extent in the orbital cavity, just caudal to the infraorbital foramen. Only 5 mm of the nerve could be freed, providing the space for placement of two chromic catgut (5-0) ligations tied loosely (with about 2 mm spacing) around it. […] Finally, scalp incision was closed using silk sutures (4-0). In sham-operated rats, the ION was exposed using the same procedure, but was not ligated.
as §2, §3
Rats were placed individually in small (35×20×15 cm) plastic cages for a 2 h habituation period. Before any stimulation session, rats freely explored the observation cage and the testing environments for 2 h. Then mechanical sensitivity was determined with a graded series of […] von Frey filaments (Bioseb, Bordeaux, France). The filaments produced a bending force of 0.40, 0.60, 1.00, 2.00, 4.00, 6.00, 8.00, 10.00 and 12.00 g, respectively. The stimuli were applied within the ION territory (vibrissae pad) three times on the nerve-injured side and then on the contralateral side for a total of 6 applications of each filament per rat, always beginning with the filament producing the lowest force. The von Frey filaments were applied at least 3 seconds after the rat had returned to its initial resting state. For each session, the complete series of von Frey filaments was tested in increasing force order. […] The latter responses represented the highest scores in the rank-ordered response scoring system initially described by Vos et al. (1994). Under our own conditions, the mechanical response threshold was determined as the minimal force filament causing at least one among these responses to at least 2 out of the 3 applications in vibrissae territory. […] To avoid nonspecific responses, only these rats were included in the study.

[1] = 10 mg/kg i.p. twice daily for four days, challenge 10 mg/kg i.p. day 19

CC[C@@H](c1cccc(O)c1)[C@@H](C)CN(C)C [Tapentadol, (−)-(1R,2R)-3-(3-dimethylamino-1-ethyl-2-methyl-propyl)-phenol]
anti-allodynic effect after subchronic pretreatment vs saline pretreatment (CCI-SN rats; [1]): produced the same anti-allodynic effects | increase in pressure threshold value (CCI-SN rats; acute 1 mg/kg i.p., first 15-30 min after injection, non significant): approximately 40% | pressure threshold values (anti-allodynic effect) (CCI-SN rats; acute 3 mg/kg i.p.): also increased pressure threshold values, but to a lower extent than 10 mg/kg i.p. | pressure threshold values (anti-allodynic effect) (CCI-SN rats; acute 10 mg/kg i.p., 15-30 min after administration): no longer differed from healthy control values | mechanical allodynia (CCI-SN rats; acute 10 mg/kg i.p., 90 min after injection): mechanical allodynia did not significantly differ from that measured in saline-treated CCI-SN rats | anti-allodynic effect after subchronic pretreatment vs saline pretreatment (CCI-ION rats; [1]): had the same characteristics (amplitude, duration) | increase in pressure threshold value compared to saline-treated CCI-ION rats (CCI-ION rats; acute 1 mg/kg i.p., first 45 min): up to 6 fold | duration of statistically significant anti-allodynic effect (CCI-ION rats; acute 10 mg/kg i.p.): at least two hours | pressure threshold values higher than those determined prior to injection (CCI-ION rats; acute 10 mg/kg i.p., 30-60 min after injection): 15-20 fold
